“And” between values parts separate entries of the source, which are not always exact repeats. Identical values can stand only once. Like-named read-outs stand apart in the source and are kept apart here. Where a SMILES comes first, the peptide text is derived from it. Side-chain parts run from the residue outwards. [ ]: non-standard residue; d: D form. The star is where a group is joined. Hexanoyl = CCCCCC(=O)*; Butyryl = CCCC(=O)*
Legend:
[1] = test system: Pseudomonas syringae pv. syringae EPS94; format: cell-based; conditions: 48 h
Method in brief: (§1)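 Peptide dilutions (stocks 500–31.1 μM) mixed 1:10 with 10^8 CFU/mL bacterial suspension in TSB. Incubated 25 °C, OD600 read hourly for 48 h, triplicates, repeated twice. MIC: lowest concentration with no growth at end.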

[2] = test system: Xanthomonas axonopodis pv. vesicatoria 2133–2; format: cell-based; conditions: TSB, 25°C, 48 h, OD 600 nm; tested at 3.1, 6.2, 12.5, 25, 50 μM; three replicates, experiment repeated twice; MIC = lowest concentration with no growth
Method in brief: as §1

[3] = test system: Erwinia amylovora PMV6076; experiment: MIC, in vitro growth inhibition; format: cell-based; conditions: TSB, 25°C, 48 h, OD 600 nm; tested at 3.1, 6.2, 12.5, 25, 50 μM; three replicates, experiment repeated twice; MIC = lowest concentration with no growth
Method in brief: as §1

[4] = test system: Fusarium oxysporum f. sp. lycopersici FOL 3 race 2; experiment: MIC, antifungal growth inhibition; format: cell-based
Method in brief: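 Microconidia are grown on PDA at 25 °C and adjusted to 10^4 conidia/mL. Peptide stocks of 500, 250, 125, 62.5 and 31.1 µM (stock, not final) are mixed with conidia in double-concentrated PDB with 0.003% chloramphenicol, in triplicate, and incubated at 20 °C. OD600 is read every 2 h for seven days, and MIC is the lowest concentration with no growth at the end.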

[5] = test system: X. axonopodis pv. vesicatoria; experiment: Bactericidal activity (killing assay); format: cell-based, Xanthomonas axonopodis pv. vesicatoria; conditions: 5 μM peptide, LB broth, aliquots every 30 min during 3 h, viable counts; triplicates
Description: In a total volume of 5 mL, 4 mL of Luria-Bertani (LB) broth were mixed with 0.5 ml of a suspension of X. axonopodis pv. vesicatoria adjusted to 10^8 CFU mL^-1 and 0.5 mL of the peptide solution at 50 μM (final concentration at 5 μM). Aliquots of 500 μL were removed at 30-min intervals during 3 h and the appropriate dilutions were spread onto LB agar using a spiral plater (Eddy Jet; IUL instruments, Spain). Triplicates were performed and colonies were counted after 48 h of incubation at 25°C with an automatic counter (Flash and Go; IUL instruments, Spain) by incorporating the software CounterMat version 5.0.

[6] = test system: E. amylovora, P. syringae pv. syringae, X. axonopodis pv. vesicatoria and F. oxysporum; format: cell-based; conditions: three of the four pathogens tested
Description: The following plant pathogenic bacterial strains were used: Erwinia amylovora PMV6076 (Institut National de la Recherche Agronomique, Angers, France), Pseudomonas syringae pv. syringae EPS94 (Institut de Tecnologia Agroalimentària, Universitat de Girona, Spain) and Xanthomonas axonopodis pv. vesicatoria 2133–2 (Instituto Valenciano de Investigaciones Agrarias, Valencia, Spain). All bacteria were stored in Luria Bertani (LB) broth supplemented with glycerol (20%) and maintained at -80°C. Bacteria were scrapped from LB agar after growing for 24–48 h at 25°C. The cell material was suspended in sterile water to obtain a suspension of 10^8 CFU mL^-1.
Fusarium oxysporum f. sp. lycopersici FOL 3 race 2 (ATCC 201829, American Type Culture Collection) was used as fungal pathogen. The strain was cultured on potato dextrose agar (PDA) plates (Difco) and microconidia were obtained after growth at 25°C. The concentration of conidia was determined using a hemacytometer and adjusted to 10^4 conidia mL^-1.
Lyophilized peptides were solubilized in sterile Milli-Q water to a final concentration of 1 mM and filter sterilized through a 0.22-μm pore filter. For minimum inhibitory concentration (MIC) assessment, dilutions of the compounds were made to obtain a stock concentration of […]. For antibacterial activity twenty microlitres of each dilution were mixed in a microtiter plate well with 20 μL of the corresponding suspension of the bacterial indicator, 160 μL of Trypticase Soy Broth (TSB) (BioMèrieux, France) to a total volume of 200 μL. For antifungal activity 20 μL of each stock solution were mixed in a microtiter plate well with 80 μL of the corresponding suspension of the fungal pathogen and 100 μL of double concentrated PDB to a total volume of 200 μL containing 0.003% w/v of choramphenicol.
Three replicates for each strain, compound and concentration were used. Microbial growth was determined by optical density measurement at 600 nm (Bioscreen C, Labsystem, Helsinki, Finland). For antibacterial activity microplates were incubated at 25°C with 20 sec shaking before hourly absorbance measurement for 48 h. For antifungal activity microplates were incubated at 20°C with 1 min shaking before absorbance measurement that were done every two hours during seven days. The experiment was repeated twice. The MIC was taken as the lowest compound concentration with no growth at the end of the experiment.

[7] = test system: erythrocyte suspensions of horse blood; conditions: horse erythrocytes 5% vol/vol, TRIS buffer pH 7.2, 1 h at 37°C, absorbance 540 nm, relative to melittin 100 μM, ± confidence interval (α = 0.05); for Hemolysis (%) 150 µM: 150 µM peptide; for Hemolysis (%) 250 µM: 250 µM peptide;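 as to all read-outs here: Read-out is hemoglobin release into the supernatant, with a buffer-only blank subtracted as the 0% baseline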
[8] = test system: tobacco leaves; experiment: Phytotoxicity by infiltration of tobacco leaves; format: in vivo; conditions: 250 μM, 100 μL infiltrated into mesophyll of tobacco leaves, 48 h after infiltration; at least three inoculations
Description: Peptide solutions of 50, 100, 150 and 250 μM were infiltrated (100 μL) into the mesophylls of fully expanded tobacco leaves. Six independent inoculations were carried out in a single leaf, and at least three independent inoculations were performed per peptide and concentration randomly distributed in diferent leaves and plants. Control infiltrations with water (negative control) or mellitin (positive control) at the same molar concentration were performed. The appearance of symptoms on the leaves was followed for 48 h after infiltration and measured as a lesion diameter.

[9] = PDB with 0.003% chloramphenicol, 20°C, seven days, OD 600 nm, tested at 3.1, 6.2, 12.5, 25, 50 μM, three replicates, repeated twice

| Molecule | MIC Pss [1] [µM] | MIC Xav [2] | MIC Ea [3] [µM] | MIC Fo [4, 9] [µM] | Bactericidal activity (kinetics of survival) [5] | MIC against three pathogens [6] [µM] | Hemolysis (%) 150 µM [7] [%] | Hemolysis (%) 250 µM [7] [%] | Phytotoxicity, size of the lesions (necrosis diameter) [8] | MIC Fo [4] [µM] |
| --- | --- | --- | --- | --- | --- | --- | --- | --- | --- | --- |
| CCCC(=O)NCCCC[C@@H]1NC(=O)[C@H](CCCCN)NC(=O)[C@H](CC(C)C)NC(=O)[C@H](CCCCN)NC(=O)[C@H](CCCCN)NC(=O)[C@H](CCC(N)=O)NC(=O)[C@H](CC(C)C)NC(=O)[C@H](CCCCN)NC(=O)[C@H](CCCCN)NC(=O)[C@H](Cc2ccccc2)NC1=O [BPC500, c(KKLKK(CO-C3H7)FKKLQ)] (cyclo(FKKLQKKLKK(Butyryl))) | 6.2 to 12.5 | <3.1 µM | 12.5 to 25 | <3.1 | bactericidal activity | < 12.5 | 28 ± 5 | 38 ± 4 |  |  |
| CCCCCC(=O)NCCCC[C@@H]1NC(=O)[C@H](CCC(N)=O)NC(=O)[C@H](CC(C)C)NC(=O)[C@H](CCCCN)NC(=O)[C@H](CCCCN)NC(=O)[C@H](Cc2c[nH]cn2)NC(=O)[C@H](CCCCN)NC(=O)[C@H](CCCCN)NC(=O)[C@H](CC(C)C)NC(=O)[C@H](CCCCN)NC1=O [BPC688] (cyclo(HKKLQK(Hexanoyl)KLKK)) | 25 to 50 | 25 to 50 µM | >50 | 12.5 to 25 |  |  | 1 ± 2 | 1 ± 0.2 | 0–0.38 cm |  |
| CCCC(=O)NCCCC[C@H]1NC(=O)[C@H](CCC(N)=O)NC(=O)[C@H](CC(C)C)NC(=O)[C@H](CCCCN)NC(=O)[C@H](CCCCN)NC(=O)[C@H](Cc2ccccc2)NC(=O)[C@H](CCCCN)NC(=O)[C@H](CCCCN)NC(=O)[C@H](CC(C)C)NC(=O)[C@H](CCCCN)NC1=O [BPC706] (cyclo(FKKLQ[dK](Butyryl)KLKK)) | 6.2 to 12.5 | 3.1 to 12.5 µM and 6.2 to 12.5 µM | 25 to 50 | 3.1 to 6.2 |  |  | 35 ± 3 | 46 ± 3 | 0–0.38 cm | 3.1 to 6.2 |
| CCCC(=O)N[C@@H](CCCCN)C(=O)N[C@@H](CC(C)C)C(=O)NCCCC[C@@H]1NC(=O)[C@H](CCCCN)NC(=O)[C@H](CC(C)C)NC(=O)[C@H](CCCCN)NC(=O)[C@H](CCCCN)NC(=O)[C@H](CCC(N)=O)NC(=O)[C@H](CC(C)C)NC(=O)[C@H](CCCCN)NC(=O)[C@H](CCCCN)NC(=O)[C@H](Cc2c[nH]cn2)NC1=O [BPC728, c(KKLKK(LK-CO-C3H7)HKKLQ)] (cyclo(HKKLQKKLKK([Leu-Lys-Butyryl]))) | 12.5 to 25 | 6.2 to 12.5 µM | >50 | <3.1 | bactericidal activity |  | 0 |  |  |  |
| melittin [mellitin, reference compound] |  |  |  |  |  |  |  |  | around 2 cm |  |
